e = 2'-O-(2-methoxyethyl) (MOE); k = constrained ethyl (cEt); d = 2'-deoxy (DNA); m = 2'-O-methyl; f = 2'-fluoro
Assays:
[1] = tested on: miR-17; assay: microRNA polysome shift assay (miPSA) in kidney of wild type mice; format: in vivo, mouse; set-up: scale not given here; details: seven days later
Protocol: In vivo potency was evaluated using the microRNA polysome shift assay (miPSA). This assay was used to determine the extent to which compounds directly engage the miR-17 target in the kidney in normal and PKD mice. The miPSA relies on the principle that active miRNAs bind to their mRNA targets in translationally active high molecular weight (HMW) polysomes, whereas the inhibited miRNAs reside in the low MW (LMW) polysomes. Treatment with anti-miR results in a shift of the microRNA from HMW polysomes to LMW polysomes. Thus, the miPSA provides a direct measurement of microRNA target engagement by a complementary anti-miR (Androsavich et al., Nucleic Acids Research, 2015, 44: e13).
Wild type mice were administered a single dose of 0.3 mg/kg, 3 mg/kg, or 30 mg/kg. Kidney tissue was collected seven days later and subjected to the miPSA. The mean displacement score for each treatment is shown in Table 15 (PBS, n=17; RGLS4326 30 mg/kg, n=10; all other treatments, n=4-5). The tested oligonucleotides displaced miR-17 from translationally active polysome (as measured by miPSA) in normal mouse kidneys.

[2] = tested on: miR-17; assay: miR-17 PD-Sig in mouse kidney cell lines; format: cell-based
Protocol: The activity of certain compounds was evaluated using a mouse miR-17 Pharmacodynamic-Signature (miR-17 PD-Sig), which consists of the expression of 18 unique miR-17 target genes normalized by six reference housekeeping genes, to provide an unbiased and comprehensive assessment of miR-17 activity. The mouse miR-17 PD-Sig score was the calculated average of the 18 genes' individual log 2 fold changes (normalized by six housekeeping genes) compared to mock transfection (Lee et al., Nat. Commun., 2019, 10, 4148).
The PD-Sig for RGLS4326 in mIMCD3 cells (77.2, indicated by “*”) was not generated in this experiment; the value in Table 14 is that reported by Lee et al., Nat. Commun., 2019, 10, 4148. Blank cells in the table indicate that a compound was not tested in a particular cell line.

[3] = target: T1, AMPA-R (GluA1/GluA4) (Homo sapiens, UniProt P42261+P48058); assay: Manual whole-cell patch clamp, ChanTest GluA1/GluA4 EZCells; format: cell-based
T1 construct: host or cells: ChanTest GluA1/GluA4 EZCells
T1 sequence (P42261 19-906): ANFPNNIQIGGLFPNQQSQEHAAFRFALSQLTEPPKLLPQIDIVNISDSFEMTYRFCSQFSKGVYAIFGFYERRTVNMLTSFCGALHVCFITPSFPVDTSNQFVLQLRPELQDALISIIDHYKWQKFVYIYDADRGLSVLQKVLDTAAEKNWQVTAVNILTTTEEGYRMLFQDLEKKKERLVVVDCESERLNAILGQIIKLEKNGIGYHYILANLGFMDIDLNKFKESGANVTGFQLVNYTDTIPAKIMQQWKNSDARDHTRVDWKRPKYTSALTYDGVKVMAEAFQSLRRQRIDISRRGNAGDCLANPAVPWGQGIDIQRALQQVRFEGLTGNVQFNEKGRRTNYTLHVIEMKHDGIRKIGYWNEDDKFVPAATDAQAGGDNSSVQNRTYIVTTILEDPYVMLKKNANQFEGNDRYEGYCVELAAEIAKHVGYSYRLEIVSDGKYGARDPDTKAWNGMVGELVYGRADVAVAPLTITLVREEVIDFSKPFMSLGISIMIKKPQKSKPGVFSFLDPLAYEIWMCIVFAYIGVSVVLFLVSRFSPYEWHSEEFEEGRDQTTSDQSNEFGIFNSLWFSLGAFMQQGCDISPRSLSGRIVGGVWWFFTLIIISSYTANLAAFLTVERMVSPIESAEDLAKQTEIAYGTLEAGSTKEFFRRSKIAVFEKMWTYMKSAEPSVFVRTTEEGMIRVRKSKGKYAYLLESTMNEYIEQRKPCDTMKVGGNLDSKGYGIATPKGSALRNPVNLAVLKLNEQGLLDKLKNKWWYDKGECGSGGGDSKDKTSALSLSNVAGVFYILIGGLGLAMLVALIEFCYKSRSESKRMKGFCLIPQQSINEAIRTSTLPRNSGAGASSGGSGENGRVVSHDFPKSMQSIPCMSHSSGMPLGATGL
T1 sequence (P48058 21-902): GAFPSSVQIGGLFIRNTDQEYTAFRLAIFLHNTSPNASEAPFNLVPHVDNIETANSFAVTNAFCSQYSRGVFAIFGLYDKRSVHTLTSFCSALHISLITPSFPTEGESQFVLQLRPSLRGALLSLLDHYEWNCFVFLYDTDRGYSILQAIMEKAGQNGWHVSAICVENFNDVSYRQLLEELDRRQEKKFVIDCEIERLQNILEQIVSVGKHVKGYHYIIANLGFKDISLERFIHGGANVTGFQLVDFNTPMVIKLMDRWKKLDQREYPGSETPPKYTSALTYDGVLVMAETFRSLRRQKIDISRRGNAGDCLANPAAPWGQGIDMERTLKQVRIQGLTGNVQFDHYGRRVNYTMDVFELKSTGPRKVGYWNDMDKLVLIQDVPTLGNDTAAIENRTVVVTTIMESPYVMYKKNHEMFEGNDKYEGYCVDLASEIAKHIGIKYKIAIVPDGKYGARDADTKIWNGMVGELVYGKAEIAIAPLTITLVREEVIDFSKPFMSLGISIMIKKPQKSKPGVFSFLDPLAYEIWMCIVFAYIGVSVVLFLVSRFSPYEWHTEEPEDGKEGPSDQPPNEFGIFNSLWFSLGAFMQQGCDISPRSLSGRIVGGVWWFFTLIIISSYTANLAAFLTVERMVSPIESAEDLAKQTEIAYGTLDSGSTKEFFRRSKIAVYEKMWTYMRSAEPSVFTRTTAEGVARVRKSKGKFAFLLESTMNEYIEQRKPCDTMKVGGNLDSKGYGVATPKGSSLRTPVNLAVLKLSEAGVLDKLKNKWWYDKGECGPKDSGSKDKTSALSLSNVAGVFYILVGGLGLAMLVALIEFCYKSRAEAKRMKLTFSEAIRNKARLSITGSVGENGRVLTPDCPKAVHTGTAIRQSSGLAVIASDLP
Protocol: To evaluate functional antagonism of anti-miR-17 oligonucleotides towards the AMPA-R, certain oligonucleotides were tested using the manual whole-cell patch clamp technique, which records membrane currents as a measure of AMPA-R activity.
Manual whole-cell patch clamp studies were performed by Metrion Biosciences (Cambridge, UK). Whole-cell voltage clamp experiments were performed at room temperature (18-21° C.) using an EPC10 patch clamp amplifier using Patchmaster software (HEKA Elektronik). Glass patch pipettes were fabricated from borosilicate glass capillaries (Harvard Apparatus) to resistances between 1.4 and 2.5 MΩ. Membrane currents were recorded using the whole-cell patch clamp technique. ChanTest® GluA1/GluA4 EZCells were clamped at a holding potential of −80 mV and membrane currents elicited by 10 μM(S)-AMPA delivered using a VC38 perfusion system (ALA Scientific Instruments). The […] current amplitude values were measured with each application of 10 μM(S)-AMPA. The fractional change of current amplitude produced by each concentration of compound was calculated relative to the control current (pre-compound) and expressed as percentage change (% inhibition) for each cell. RGLS4326 was tested in a separate study from all other compounds in Table 6.

[4] = tested on: miR-17; assay: miR-17 luciferase sensor assay in HeLa cells; format: cell-based; details: for EC50: HeLa cells, 18- to 24-hour transfection
Protocol: The in vitro potency of certain compounds was evaluated using a miR-17 luciferase sensor assay which uses a luciferase reporter vector for miR-17, with two fully complementary miR-17 binding sites in tandem in the 3′-UTR of the luciferase gene. HeLa cells were co-transfected with the luciferase reporter vector and an exogenous miR-17-expression vector that acted to repress the luciferase signal.

[5] = tested on: KspCre/Pkd1F/RC (Pkd1-F/RC) mice; assay: Efficacy in Pkd1-F/RC mouse model of ADPKD; format: in vivo; details: 20 mg/kg SC on days 8, 10, 12, 15 of age
Protocol: Mice were sacrificed at 18 days of age, and kidney weight, body weight, cyst index, serum creatinine level, and blood urea nitrogen (BUN) level were measured. BUN level is a marker of kidney function. A higher BUN level correlates with poorer kidney function, thus a reduction in BUN level is an indicator of reduced kidney injury and damage and improved function. Statistical significance was calculated by one-way ANOVA with Dunnett's multiple correction.

[6] = target: AMPA-R; assay: [3H]AMPA radioligand binding assay on rat brain synaptic membranes; details: for % Inhibition @ Concentration 100 uM: Table 8 (3′-terminal nucleobase/sugar variants); for % Inhibition @ Concentration 0.1 uM: Table 8, 0.1 uM; for % Inhibition @ Concentration 1 uM: Table 8, 1 uM; for % Inhibition @ Concentration 10 uM: Table 8, 10 uM;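 as to all read-outs here: competition binding in which test compounds at rising concentrations displace [3H]AMPA from AMPA-R on rat brain synaptic membranes, with reduced bound radioligand as read-out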
[7] = tested on: Pcy/DBA mice; assay: Efficacy in Pcy/DBA mouse model of PKD, alone and with tolvaptan; format: in vivo; details: 0.3% Tolvaptan in chow alone (vehicle SC);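 also: dosing began at 6 weeks of age, with endpoints collected 7 days after the last dose and PBS-injected wild-type DBA/2J mice as the normal reference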
Protocol: The efficacy of RG-NG-1015 was also evaluated in the Pcy/DBA mouse model of PKD alone and in combination with tolvaptan.
As outlined in FIGS. 6A and 6B, five groups of male Pcy/DBA mice (n=13 per treatment group) were treated subcutaneously with PBS or RG-NG-1015 at 25, 5, 1, or 0.2 mg/kg once every two weeks (Q2W). Two groups of male Pcy/DBA mice (n=13 per group) were also treated with RG-NG-1015 at 50 mg/kg once every four weeks (Q4W) or at 12.5 mg/kg once weekly (QW). Another four groups of male Pcy/DBA mice (n=13 per group) were treated subcutaneously with PBS or RG-NG-1015 at 25, 5, or 1 mg/kg Q2W in combination with tolvaptan at 0.3% (w/w chow) ad libitum. A group of male WT-BDA/2J mice received subcutaneous injections of PBS Q2W was included in the study as a normal range reference. Mice were randomized into treatment groups at 5 weeks of age, and treatment started at 6 weeks of age for 17 weeks and were sacrificed 7 days after the final treatment. Kidney weight, body weight, kidney cyst index, urine Ngal-to-Creatinine ratio (Ngal/Cr) were measured.

[8] = tested on: C57Bl/6J male mice; assay: ICV maximum tolerated dose study, Study 1; format: in vivo, mouse; details: for Mortality/total number of mice: 7-day
Protocol: Compounds (RG-NG-1017, RGLS4326, RG-NG-1001) were evaluated in a pilot maximum tolerated dose (MTD) study (discussed below). RG-NG-1017, RGLS4326 and RG-NG-1001 were initially evaluated at 4 dose-levels each. RG-NG-1017 was included for evaluation as a non-AMPA-R binding compound, as compared to RGLS4326 and RG-NG-1001, which bind AMPA-R. C57Bl/6J male mice (Jackson Laboratories), age 6-7 weeks, were used in this study. Mice were assigned randomly to treatment groups, and the study was blinded. Animals were allowed to acclimate for no less than 5 days and housed on a 12 hr light/dark cycle (lights on 7:00 AM). No more than 4 mice were house in each cage in a ventilated cage rack system. The diet consisted of standard rodent chow and water ad libitum.
The following parameters were used for this study: • 1. Route(s) of administration: intracerebroventricular (ICV) dosing of RG-NG-1017, RG-NG-1001, RGLS4326 • 2. Dose Volume(s): 4 μL • 3. Formulation(s): vehicle, Ca^2+ and Mg^2+ free dPBS • 4. Dose Frequency: Once • 5. Study duration: 8 Days • 6. Number of Groups: 3 • 7. Number of animals per group: (2-4 each group) • 8. Total number of animals: […]
For the ICV administration, mice were anesthetized and positioned for injections. The skin over the skull was incised, and a small hole was made in the skull above the target using a microdrill. The stereotactic coordinates were anteroposterior (AP), −0.4 mm; mediolateral (ML), +/−1.0-1.5 mm; dorsoventral (DV), −3.0 mm from the bregma for injection into both the right and left lateral cerebral ventricles (Hironaka et al, 2015). Animals were injected unilaterally with 4 μl into the right lateral cerebral ventricle. Compounds were injected over 1-2 min, and the needle was left in place for 0.5-1 min prior to withdrawal. The incision was closed with sutures, wound clips, or VetBond.
Following ICV treatment (Day 0), animals were monitored for 7 days in which daily health checks, body weight, and mortality was recorded. On Day 7, brain and kidney were collected and fixed (10% formalin) and stored pending histology.

[9] = tested on: mice; details: in vivo
Protocol: Each compound was tested in a single dose at 2000 mg/kg, and at escalating doses (100, 450, and 2000 mg/kg).

Compound	miPSA Displacement Score, Mean ([1]; single dose 30 mg/kg)	% Inhibition on membrane currents evoked with 10 uM (s)-AMPA (Mean ± SD) ([3]; 0.3 uM compound) [%]	% Inhibition on membrane currents evoked with 10 uM (s)-AMPA (Mean ± SD) ([3]; 3 uM compound) [%]	Log2FC (37.5 nM) [4]	IC50 ([6]; Experiment #1) [nM]	% Inhibition @ 0.1 uM ([6]; Experiment #1, 0.1 uM) [%]	% Inhibition @ 1 uM ([6]; Experiment #1, 1 uM) [%]	% Inhibition @ 10 uM ([6]; Experiment #1, 10 uM) [%]	% Inhibition @ 100 uM ([6]; Experiment #1, 100 uM) [%]	IC50 ([6]; Experiment #2) [nM]	% Inhibition @ 0.1 uM ([6]; Experiment #2, 0.1 uM) [%]	% Inhibition @ 1 uM ([6]; Experiment #2, 1 uM) [%]	% Inhibition @ 10 uM ([6]; Experiment #2, 10 uM) [%]	% Inhibition @ 100 uM ([6]; Experiment #2, 100 uM) [%]	IC50 ([6]; Experiment #3) [nM]	IC50 ([6]; Table 8) [nM]	% Inhibition @ Concentration 100 uM [6] [%]	% Inhibition @ Concentration 0.1 uM [6] [%]	% Inhibition @ Concentration 1 uM [6] [%]	% Inhibition @ Concentration 10 uM [6] [%]	also measured
ASCSAMAFUFGFCMASCS [RG5124, reference compound]	0.5935	14.1 ± 7.2	42.1 ± 9.4	0.40	> 100000	0.4	12.9	−3.7	−5.1	> 100000	−1.2	1.6	−4.2	7.2	> 100000	≥ 100000	10.1	−8.6	−0.6	4.4	EC50 ([2]; D52B5, mouse, PKD): 507 nM; BW/KW Ratio, Mean Difference vs. PBS [5]: 26.14; Serum BUN, Mean Difference vs. PBS [5]: +8.138; Serum Creatine, Mean Difference vs. PBS [5]: +0.07838; Mean BW/KW Ratio ([5]; sacrificed at 18 days): 91.75; Mean Serum BUN ([5]; sacrificed at 18 days): 50.61; Mean Serum Creatine ([5]; sacrificed at 18 days): 0.2403; % Inhibition @ 0.1 uM ([6]; Experiment #3, 0.1 uM): 5.1%; % Inhibition @ 1 uM ([6]; Experiment #3, 1 uM): 9.3%; % Inhibition @ 10 uM ([6]; Experiment #3, 10 uM): 16.1%; % Inhibition @ 100 uM ([6]; Experiment #3, 100 uM): 23%
GSCEAECETEGSTEADASGSCMAFCFUFUMUSGS (GCACTGTAAGCACUUUG; sugars from the 5' end keeeekedkkmfffmkk, backbone and methylation of C not given here) [RG-NG-1032]	–	–	–	3.85	–	–	–	–	–	–	–	–	–	–	–	1170	92	24.3	43.8	78.3	EC50 [4]: < 1 nM
Cc1ccccc1C(=O)Nc1ccc(C(=O)N2CCCC(O)c3cc(Cl)ccc32)c(C)c1 (centres unmarked) [Tolvaptan, tolvaptan, reference compound]	–	–	–	–	–	–	–	–	–	–	–	–	–	–	–	–	–	–	–	–	Mean Cystic Area [7]: 44.68%; Mean Cystic Area % Inhibition [7]: 29.2%; Mean KW/BW [7]: 59.3 mg/g; Mean KW/BW % Inhibition [7]: 44.9%; Mean Urine Ngal/Cr [7]: 8.73 mg/mg; Mean Urine Ngal/Cr % Inhibition [7]: 62.1%
ASGSCSASCSUSUSUSGS [RG-NG-1001]	–	80.5 ± 6.3	88.8 ± 4.5	–	170	41.1	76.2	89.1	91.3	190	42.2	68.3	90.1	93.5	100	150	102.9	41.9	81.3	99.3	Mortality/total number of mice ([8]; single ICV 2.5 μg): 1/3; Mortality/total number of mice ([8]; single ICV 5 μg): 4/4; Mortality/total number of mice ([8]; single ICV 10 μg): 3/4; Mortality/total number of mice ([8]; single ICV 25 μg): 3/3; Mortality/total number of mice ([8]; single ICV 50 μg): 3/3; Mortality/total number of mice ([8]; single ICV 100 μg): 2/2; Mortality/total number of mice ([8]; single ICV 300 μg): 2/2; Mortality/total number of mice ([8]; single ICV 600 μg): 2/2; MTD ([8]; single ICV, C57Bl/6J mice, predicted from the study): under 2.5 μg; % Inhibition @ 0.1 uM ([6]; Experiment #3, 0.1 uM): 59.4%; % Inhibition @ 1 uM ([6]; Experiment #3, 1 uM): 84.8%; % Inhibition @ 10 uM ([6]; Experiment #3, 10 uM): 94.6%; % Inhibition @ 100 uM ([6]; Experiment #3, 100 uM): 96.6%; CNS toxicity in high-dose mouse toxicity studies [9]: ataxia, lethargy
ASGSCMAFCFUFUMUSCS [RG-NG-1016]	1.134	16.0 ± 6.2	27.1 ± 9.8	2.32	–	–	–	–	–	> 100000	4.7	10.4	12.3	5.9	–	–	–	–	–	–	miPSA Displacement Score, Mean ([1]; single dose 3 mg/kg): 2.263; miPSA Displacement Score, Mean ([1]; single dose 0.3 m/kg): 1.892; EC50 ([2]; mIMCD3, mouse, Normal): 146 nM; functional antagonism towards AMPA-R relative to RGLS4326 ([3]; in words): reduced functional antagonism towards AMPA-R; EC50 [4]: 20.3 nM; CNS toxicity in high-dose mouse toxicity studies [9]: no CNS-toxicity were observed; CNS-related findings noted ([9]; mouse, sc, 2000 mg/kg): No

— patent US12559750B2, “Methods and compositions for treatment of polycystic kidney disease” (Regulus Therapeutics Inc., priority 2021, dated 2026)
